Patent publication US7351709B2, “Estrogen receptor ligands” (Wyeth, priority 2004, dated 2008)
Read-outs that look alike come from different tables or passages of the source.

How the values were obtained:
[1] = target: T1, ERα (Homo sapiens, UniProt P03372); test: Creatine kinase (CK) assay in ERα infected HAECT-1 cells; format: cell-based; conditions: for ER/CK % E2: efficacy relative to the maximal stimulation observed with E2
T1 construct: expressed in transfected cells; host or cells: HAECT-1 cells infected with Ad5-wt-ER adenovirus
T1 sequence (P03372 1-595): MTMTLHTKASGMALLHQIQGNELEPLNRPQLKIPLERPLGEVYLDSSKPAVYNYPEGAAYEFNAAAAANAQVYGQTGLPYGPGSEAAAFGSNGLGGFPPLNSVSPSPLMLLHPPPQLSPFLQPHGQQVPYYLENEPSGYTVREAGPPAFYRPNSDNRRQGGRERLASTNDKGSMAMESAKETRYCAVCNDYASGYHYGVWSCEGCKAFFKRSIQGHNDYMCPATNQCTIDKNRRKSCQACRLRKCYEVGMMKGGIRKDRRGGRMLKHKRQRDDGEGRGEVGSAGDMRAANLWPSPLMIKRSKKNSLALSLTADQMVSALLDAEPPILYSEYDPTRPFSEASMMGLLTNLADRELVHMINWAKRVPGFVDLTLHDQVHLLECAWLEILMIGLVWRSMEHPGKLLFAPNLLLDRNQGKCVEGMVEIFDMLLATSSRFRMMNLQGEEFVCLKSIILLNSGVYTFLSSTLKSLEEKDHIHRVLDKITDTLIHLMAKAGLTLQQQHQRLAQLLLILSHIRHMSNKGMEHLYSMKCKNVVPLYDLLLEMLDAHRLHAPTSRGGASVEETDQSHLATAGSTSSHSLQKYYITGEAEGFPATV
Method: (§1) ERα infected HAECT-1 cells or control cells were thawed, diluted 42× in warm EBM-BSA, plated into 96-well plates at 0.1 ml/well and incubated for 4 h at 34° C. Test compounds were added to the cells as 2× stocks in EBM-BSA containing 2 ng/ml IL-1β (R&D Systems) and plates were returned to the incubator (34° C.). After 15-20 h, 100 μl aliquots of media were removed from the cells and assayed for IL-6 content using a BioSource human IL-6 ELISA Kit. Cells were subsequently washed with 300 μl of Dulbecco's phosphate buffered saline and lysed in 50 μl of Cell Culture Lysis Reagent (Promega). Creatine kinase was determined from the rate of increase in A340 following addition of 100 μl of CK assay reagent (Sigma, cat. No 47-10) to the remainder of the cell lysate.
(§2) For IC50 and EC50 calculations, mean IL-6 or CK values versus log10 of the compound concentration were fitted to a four parameter logistic equation. The IC50/EC50 value, ‘Hill slope’, upper and lower limits of the curve were iteratively estimated.

[2] = target: T1, ERα; test: IL-6 assay: inhibition of IL-1β induced IL-6 expression in ERα infected HAECT-1 cells; format: cell-based; conditions: for IC50: Ad5-wt-ER infected HAECT-1 cells, IL-1β stimulated, IL-6 by ELISA; for ER/IL-6 % E2: efficacy relative to the maximal inhibition observed with E2
Method: as §1, §2

[3] = Ad5-wt-ER infected HAECT-1 cells, creatine kinase in cell lysate
[4] = cells of the EC50 column printed in uM, read-out: ER/CK EC50

Row | SMILES | EC50 [1, 3] [µM] | ER/CK % E2 [1] [% E2] | IC50 [2] [nM] | ER/IL-6 % E2 [2] [% E2] | ER/CK EC50 (nM) [1, 3] | EC50 [1, 4] [µM]
1 | CC[C@@H]1C(=O)N(C)c2ccc(F)cc2N1C(=O)c1ccc(O)cc1O [Example 19, (3R)-4-(2,4-Dihydroxybenzoyl)-3-ethyl-6-fluoro-1-methyl-3,4-dihydroquinoxalin-2(1H)-one] | 0.05 | 44 | 5.4 | 92 | – | –
2 | CC[C@H]1C(=O)N(CC)c2ccc(F)cc2N1S(=O)(=O)c1ccc(O)cc1 [Example 26, (3S)-1,3-Diethyl-6-fluoro-4-[(4-hydroxyphenyl)sulfonyl]-3,4-dihydroquinoxalin-2(1H)-one] | – | – | 339 | 81 | inactive | –
3 | CC[C@H]1C(=O)N(C)c2cc(F)ccc2N1S(=O)(=O)c1ccc(O)cc1 [Example 29, (3S)-3-Ethyl-7-fluoro-4-[(4-hydroxyphenyl)sulfonyl]-1-methyl-3,4-dihydroquinoxalin-2(1H)-one] | 0.344 | 20 | 1170 | 85 | – | –
4 | CC[C@H]1C(=O)N(CC)c2cc(F)ccc2N1S(=O)(=O)c1ccc(O)cc1 [Example 30, (3S)-1,3-Diethyl-7-fluoro-4-[(4-hydroxyphenyl)sulfonyl]-3,4-dihydroquinoxalin-2(1H)-one] | 0.043 | 9 | 738 | 63 | – | –
5 | CC[C@@H]1C(=O)N(Cc2ccccc2)c2cc(F)ccc2N1C(=O)c1ccc(O)cc1 [Example 2, (3R)-1-Benzyl-3-Ethyl-7-fluoro-4-(4-hydroxybenzoyl)-3,4-dihydroquinoxalin-2(1H)-one] | – | 24 | 1230 | 80 | – | > 10
6 | CC[C@H]1C(=O)N(C)c2ccc(F)cc2N1S(=O)(=O)c1ccc(O)cc1 [Example 25, (3S)-3-Ethyl-6-fluoro-4-[(4-hydroxyphenyl)sulfonyl]-1-methyl-3,4-dihydroquinoxalin-2(1H)-one] | – | 35 | 681 | 108 | – | > 3
7 | CC[C@@H]1C(=O)N(CC)c2ccc(F)cc2N1C(=O)c1ccc(O)cc1O [Example 18, (3R)-4-(2,4-Dihydroxybenzoyl)-1,3-diethyl-6-fluoro-3,4-dihydroquinoxalin-2(1H)-one] | 0.169 | 36 | 20 | 96 | – | –
8 | CC[C@@H]1C(=O)N(C)c2cc(F)ccc2N1C(=O)c1ccc(O)cc1 [Example 1, (3R)-3-Ethyl-7-fluoro-4-(4-hydroxybenzoyl)-1-methyl-3,4-dihydroquinoxalin-2(1H)-one] | 0.089 | 16 | 74 | 99 | – | –
9 | CC[C@@H]1C(=O)N(Cc2ccccc2)c2cc(F)ccc2N1C(=O)c1cccc(O)c1 [Example 5, (3R)-1-Benzyl-3-ethyl-7-fluoro-4-(3-hydroxybenzoyl)-3,4-dihydroquinoxalin-2(1H)-one] | 0.255 | 17 | 542 | 65 | – | –
